Data on 20 compounds can be found in patent publication US20140005197A1, “INHIBITORS OF INFLUENZA VIRUSES REPLICATION” (Vertex Pharmaceuticals Incorporated, priority 2010, published 2014).

pEC50, pIC50: −log10 of the molar value. Like-named read-outs stand apart in the source and are kept apart here.

One assay has as its system influenza A virus. As to the kind of experiment: microbe, parasite or virus in culture. Format: cell-based.
The test system of assay [1] is influenza A virus (A/PR/8/34). As to the kind of experiment: microbe, parasite or virus in culture. The assay is classed as cell-based.
The test system of another assay is influenza. As to the kind of experiment: Influenza Therapeutic Mouse Model. The assay is classed as in vivo. The settings on record: Balb/c mice, 30 mg/kg BID × 10 days, dosing @ 48 hours post infection.
Where [2] appears, read: Influenza A virus, viral RNA 50% of control wells, 18-36 hours, mean all, read-out: bDNA EC50.
[3] abbreviates: Influenza A virus, PR/8, MDCK, 72 h, read-out: Flu, MDCK IC50.
The mark [4] stands for this setting: Influenza A virus, bDNA viral RNA assay, read-out: EC50.
Setting [5] is: Influenza A virus, PR/8, MDCK, MDCK cells, A/PR/8/34, CPE assay, read-out: IC50.
[6] abbreviates: viral RNA 50% of control wells, 18-36 hours, mean all, read-out: bDNA EC50.

`O=C(O)[C@H]1C2CCC(CC2)[C@@H]1Nc1nc(-c2n[nH]c3ncc(Cl)cc23)c(F)cc1F` (racemic) [Compound I-6, (2S,3S)-3-((6-(5-chloro-1H-pyrazolo[3,4-b]pyridin-3-yl)-3,5-difluoropyridin-2-yl)-amino)bicyclo[2.2.2]octane-2-carboxylate]: the pEC50 (commonly the EC50 on a negative log10 scale, so that one unit is a factor of ten) with influenza A virus (setting [2]) was over 5.48. Besides, the pIC50 – broadly, the negative decadic logarithm of the IC50, by convention in mol/L – in assay [1] (setting [3]) was over 5.48.
On to `O=C(O)[C@H]1C2CCC(CC2)[C@@H]1Nc1cncc(-c2n[nH]c3ncc(F)cc23)n1` (racemic) [Compound I-9, (+/−)-trans-(2,3)-3-((6-(5-fluoro-1H-pyrazolo[3,4-b]pyridin-3-yl)pyrazin-2-yl)amino)bicyclo[2.2.2]octane-2-carboxylic acid], for which the pEC50 was 7.47 with influenza A virus (setting [4]) and over 5.48 in the assay on influenza A virus (setting [2]). In addition, the pIC50 in assay [1] (setting [3]) is over 5.48; in assay [1] (setting [5]) it was 7.77.
As for `N#Cc1cc(F)c(N[C@H]2C3CCC(CC3)[C@@H]2C(=O)O)nc1-c1n[nH]c2ncc(F)cc12` (racemic) [Compound I-12], the pEC50 in the assay on influenza A virus (setting [2]) was over 5.48. In assay [1] (setting [3]), the pIC50 was over 5.48.
Regarding `O=C(O)C1C2CCC(CC2)C1Nc1cnnc(-c2n[nH]c3ncc(F)cc23)n1` (racemic) [Compound I-17, (+/−)-trans-3-((3-(5-fluoro-1H-pyrazolo[3,4-b]pyridin-3-yl)-1,2,4-triazin-5-yl)amino)bicyclo[2.2.2]octane-2-carboxylic acid], the pEC50 with influenza A virus (setting [2]) is over 5.48. In addition, the negative logarithm of the IC50 (pIC50) in assay [1] (setting [3]) was over 5.48.
`N#Cc1cc(F)c(NC2C3CCC(CC3)C2C(=O)O)cc1-c1n[nH]c2ncc(F)cc12` (racemic) [Compound I-21, (+/−)-trans-3-((4-cyano-2-fluoro-5-(5-fluoro-1H-pyrazolo[3,4-b]pyridin-3-yl)phenyl)amino)bicyclo[2.2.2]octane-2-carboxylic acid]: in the assay on influenza A virus (setting [2]), the negative logarithm of the EC50 (pEC50) is over 5.48. In assay [1] (setting [3]), the pIC50 is over 5.48.
In the case of `O=C(O)[C@H]1C2CCC(CC2)[C@@H]1Nc1nc(-c2n[nH]c3ncc(F)cc23)c(F)cc1F` (stereo in doubt) [Compound I-5], the pEC50 in the assay on influenza A virus (setting [2]) was over 5.48. Further, the pIC50 in assay [1] (setting [3]) was over 5.48.
`O=C(O)[C@H]1C2CCC(CC2)[C@@H]1Nc1nc(-c2n[nH]c3ncc(F)cc23)ccc1F` (stereo in doubt) [Compound I-7]: the pEC50 in the assay on influenza A virus (setting [2]) is over 5.48. For the same compound, in assay [1] (setting [3]), the pIC50 is over 5.48.
For the compound `CCOC(=O)[C@@H]1CCC[C@H](Nc2nc(-c3n[nH]c4ncc(F)cc34)c(F)cc2F)C1` [Compound I-1, (1R,3S)-ethyl 3-(3,5-difluoro-6-(5-fluoro-1H-pyrazolo[3,4-b]pyridin-3-yl)pyridin-2-ylamino)cyclohexanecarboxylate], the pEC50 in the assay on influenza A virus (setting [2]) was over 5.48. For the same compound, the pIC50 in assay [1] (setting [3]) is over 5.48.
`O=C(O)[C@@H]1CCC[C@H](Nc2nc(-c3n[nH]c4ncc(F)cc34)c(F)cc2F)C1` [Compound I-2, (1R,3S)-3-(3,5-difluoro-6-(5-fluoro-1H-pyrazolo[3,4-b]pyridin-3-yl)pyridin-2-ylamino)cyclohexanecarboxylic acid]: in the assay with influenza A virus (setting [2]), the pEC50 is over 5.48. Besides, the pIC50 in assay [1] (setting [3]) is over 5.48.
For the compound `Cn1cnc(C(=O)N[C@@H]2CCC[C@H](Nc3nc(-c4n[nH]c5ncc(F)cc45)c(F)cc3F)C2)c1` [Compound I-3, N-((1R,3S)-3-(3,5-difluoro-6-(5-fluoro-1H-pyrazolo[3,4-b]pyridin-3-yl)pyridin-2-ylamino)cyclohexyl)-1-methyl-1H-imidazole-4-carboxamide], the pEC50 in the assay on influenza A virus (setting [2]) is over 5.48. In addition, in assay [1] (setting [3]), the negative logarithm of the IC50 (pIC50) is over 5.48.
As to `O=C(O)[C@H]1C2CCC(CC2)[C@@H]1Nc1nc(-c2n[nH]c3ncc(F)cc23)c(F)cc1F` [Compound I-8, sodium (2S,3S)-3-(3,5-difluoro-6-(5-fluoro-1H-pyrazolo[3,4-b]pyridin-3-yl)pyridin-2-ylamino)bicyclo[2.2.2]octane-2-carboxylate], the “WBP (Penh; Day 6)” value in the assay with influenza (Whole Body Plethysmography, study day 6/7) was found to be 2.03. Also, the “Percent Weight Loss (Day 8)” value with influenza (post challenge day 8) amounted to 20.8%. In the assay on influenza (survival scored for 21 days), the “Percent Survival” value came to 100%. Moreover, the results for the pEC50 with influenza A virus (setting [4]) and with influenza A virus (setting [6]) were 8.15 and over 5.48, respectively. In assay [1] (setting [5]), the negative-log IC50 (pIC50) was 5.45.
Take `O=C(O)[C@@H]1C2CCC(CC2)[C@H]1Nc1nc(-c2n[nH]c3ncc(F)cc23)ccc1F` [Compound I-10]: in the assay on influenza A virus (setting [2]), the pEC50 is over 5.48.
For `O=C(O)[C@H]1C2CCC(CC2)[C@@H]1Nc1nc(-c2n[nH]c3ncc(F)cc23)ccc1F` [Compound I-11, (2S,3S)-3-(3-fluoro-6-(5-fluoro-1H-pyrazolo[3,4-b]pyridin-3-yl)pyridin-2-ylamino)bicyclo[2.2.2]octane-2-carboxylic acid], the pEC50 in the assay with influenza A virus (setting [6]) is over 5.48. Further, in assay [1] (read-out: Flu, MDCK IC50), the negative-log IC50 (pIC50) was over 5.48.
Regarding `O=C(O)[C@@H]1C2CCC(CC2)[C@H]1Nc1cncc(-c2n[nH]c3ncc(F)cc23)n1` [Compound I-13, (2R,3R)-3-((6-(5-fluoro-1H-pyrazolo[3,4-b]pyridin-3-yl)pyrazin-2-yl)amino)bicyclo-[2.2.2]octane-2-carboxylic acid], the pEC50 in the assay with influenza A virus (setting [2]) was over 5.48. For the same compound, the pIC50 in assay [1] (setting [3]) was over 5.48.
On to `O=C(O)[C@H]1C2CCC(CC2)[C@@H]1Nc1cncc(-c2n[nH]c3ncc(F)cc23)n1` [Compound I-14, (2S,3S)-3-((6-(5-fluoro-1H-pyrazolo[3,4-b]pyridin-3-yl)pyrazin-2-yl)amino)bicyclo-[2.2.2]octane-2-carboxylic acid], for which the pEC50 with influenza A virus (setting [2]) was over 5.48. In addition, the pIC50 in assay [1] (setting [3]) is over 5.48.
`N#Cc1cc(F)c(N[C@H]2C3CCC(CC3)[C@@H]2C(=O)O)nc1-c1n[nH]c2ncc(F)cc12` [Compound I-15, (2S,3S)-3-((5-cyano-3-fluoro-6-(5-fluoro-1H-pyrazolo[3,4-b]pyridin-3-yl)pyridin-2-yl)amino)bicyclo[2.2.2]octane-2-carboxylic acid]: the pEC50 in the assay on influenza A virus (setting [2]) was over 5.48. Also, the pIC50 in assay [1] (setting [3]) is over 5.48.
Turning to `N#Cc1cc(F)c(N[C@@H]2C3CCC(CC3)[C@H]2C(=O)O)nc1-c1n[nH]c2ncc(F)cc12` [Compound I-16], the pEC50 with influenza A virus (setting [2]) was over 5.48. In addition, the negative logarithm of the IC50 (pIC50) in assay [1] (setting [3]) is over 5.48.
In the case of `O=C(N[C@@H]1CCC[C@H](Nc2nc(-c3n[nH]c4ncc(F)cc34)c(F)cc2F)C1)c1csc(Cl)c1` [Compound I-18, 5-chloro-N-((1R,3S)-3-((3,5-difluoro-6-(5-fluoro-1H-pyrazolo[3,4-b]pyridin-3-yl)pyridin-2-yl)amino)cyclohexyl)thiophene-3-carboxamide], in the assay on influenza A virus (setting [2]), the pEC50 was over 5.48. The pIC50 in assay [1] (setting [3]) was over 5.48.
As for `O=C(N[C@@H]1CCC[C@H](Nc2nc(-c3n[nH]c4ncc(F)cc34)c(F)cc2F)C1)c1ccsc1` [Compound I-19, N-((1R,3S)-3-((3,5-difluoro-6-(5-fluoro-1H-pyrazolo[3,4-b]pyridin-3-yl)pyridin-2-yl)amino)cyclohexyl)thiophene-3-carboxamide], in the assay with influenza A virus (setting [2]), the pEC50 was over 5.48. The pIC50 in assay [1] (setting [3]) is over 5.48.
With `N#Cc1cc(F)c(N[C@H]2C3CCC(CC3)[C@@H]2C(=O)O)cc1-c1n[nH]c2ncc(F)cc12` [Compound I-20], the pEC50 with influenza A virus (setting [6]) is over 5.48. For the same compound, in assay [1] (read-out: Flu, MDCK IC50), the negative-log IC50 (pIC50) was over 5.48.
